Data reported in US20260294839A1, “COMPOSITION AND METHOD OF MAKING” (priority 2023, published 2026).
Where two headings read alike, the source gives them in different places.

Tests used:
[1] = test system: consortium of S. aureus, E. coli and P. aeruginosa; test: ISO 11930 preservative effectiveness, bacterial consortium; type: cell-based; settings: for log reduction at 50 % v/v: 50.0% v/v aqueous; for log reduction at 5 % / log reduction at 15 % / log reduction at 50 % / Nx: diluted in aqueous solution; for log reduction at 5 % / log reduction at 15 % / log reduction at 50 %: read-out: Rx (log reduction)
Experimental: (§1) The ISO 11930 industry standard test was to used measure the effectiveness of the compound to act as a preservative (growth inhibition) for up to 28 days (as tested). Preservative action is used to prevent spoilage and contamination of food, cosmetics, and drugs. First, compositions of the invention were diluted in Glycerol (Tables 7 to 8).
(§2) Next, compositions of the invention were diluted in aqueous solution.
According to ISO 11930, compositions of the invention produced a log reduction of >4.14 logs at a concentration of 50.0% v/v, 15.0% v/v, and 5.0% v/v as tested after 7 days, 14 days and 28 days at 25° C. against a consortium of Staphylococcus aureus ATCC 6538, Escherichia coli NCTC 10536 and Pseudomonas aeruginosa ATCC 15442 (Table 9). […]

Staphylococcus aureus = test: Non-peroxide activity (NPA) plate assay with catalase; type: cell-based; settings: duplicate or triplicate mean; invention sample 1 fresh, 2-5 stored 234 days (37° C., room temperature, fridge, freezer)
Experimental: In this test, the enzyme catalase was added to the sample to rapidly break down hydrogen peroxide to water and oxygen. […] The test was carried out using a Gram-positive bacteria, Staphylococcus aureus. The result is a value in % w/v relative to phenol standards. Two honey samples and several control samples consisting of glycerol with additional components were tested alongside the composition of the invention samples and the results are shown in Table 4. Samples were run in duplicate or triplicate and the mean result calculated.
[…] of the composition of the invention were tested: • Sample 1: a freshly made sample • Sample 2: stored for 234 days in a 37° C. incubator • Sample 3: stored for 234 days at room temperature • Sample 4: stored for 234 days in a fridge • Sample 5: stored for 234 days in a freezer
The NPA assay was used, as previously in Example 3.

[2] = test system: consortium of C. albicans and A. brasiliensis; test: ISO 11930 preservative effectiveness, fungal consortium; type: cell-based; settings: for log reduction at 5 % / log reduction at 15 % / log reduction at 50 % / Nx: diluted in aqueous solution; for log reduction at 5 % / log reduction at 15 % / log reduction at 50 %: read-out: Rx (log reduction)
Experimental: as §1, §2
Also according to ISO 11930, compositions of the invention produced a log reduction of >3.27 logs at a concentration of 50.0% v/v, 15.0% v/v, and 5.0% v/v as tested after 7 days, 14 days and 28 days at 25° C. against a consortium of Candida albicans ATCC 10231 and Aspergillus brasiliensis ATCC 16404 (Table 10). […]

[3] = if it accumulates excessively at the wound site; cited from earlier work
[4] = ISO 11930, aqueous solution, 25° C.

OCC(O)CO [Glycerol, glycerol]
level at which it is a preservative, bacteria [1]: > 50.0 % V/V | log reduction at 50 % v/v ([1]; 14 days and 28 days, 25° C.): > 4.21 | log reduction at 50 % v/v ([1]; 168 h, 7 days, 25° C.): 3.67 | log reduction at 5 % ([1]; 168 h, 5% (V/V), day 7): < 2.84 | log reduction at 15 % ([1]; 168 h, 15% (V/V), day 7): < 2.84 | log reduction at 50 % ([1]; 168 h, 50% (V/V), day 7): 3.67 | log reduction at 5 % ([1]; 336 h, 5% (V/V), day 14): < 2.84 | log reduction at 15 % ([1]; 336 h, 15% (V/V), day 14): 3.28 | log reduction at 50 % ([1]; 336 h, 50% (V/V), day 14): > 4.21 | log reduction at 5 % ([1]; 672 h, 5% (V/V), day 28): < 2.84 | log reduction at 15 % ([1]; 672 h, 15% (V/V), day 28): > 4.21 | log reduction at 50 % ([1]; 672 h, 50% (V/V), day 28): > 4.21 | Preservation Criteria A for bacteria [1, 4]: conforms to Preservation Criteria A for bacteria | Nx ([1]; 5% (V/V), day 0): >3.30E+03 | Nx ([1]; 5% (V/V), day 7): >3.30E+03 | Nx ([1]; 5% (V/V), day 14): >3.30E+03 | Nx ([1]; 5% (V/V), day 28): >3.30E+03 | Nx ([1]; 15% (V/V), day 0): >3.30E+03 | Nx ([1]; 15% (V/V), day 7): >3.30E+03 | Nx ([1]; 15% (V/V), day 14): 1.20E+03 | Nx ([1]; 15% (V/V), day 28): <1.40E+02 | Nx ([1]; 50% (V/V), day 0): >3.30E+03 | Nx ([1]; 50% (V/V), day 7): 4.95E+02 | Nx ([1]; 50% (V/V), day 14): <1.40E+02 | Nx ([1]; 50% (V/V), day 28): <1.40E+02 | NPA, Mean Result (Staphylococcus aureus): <9.5 % w/v phenol equivalent | log reduction ([2]; 50.0%, 15.0%, 5.0% v/v, 7, 14 and 28 days, 25° C.): did not produce a measurable log reduction | log reduction at 5 % ([2]; 168 h, 5% (V/V), day 7): < 1.65 | log reduction at 15 % ([2]; 168 h, 15% (V/V), day 7): < 1.65 | log reduction at 50 % ([2]; 168 h, 50% (V/V), day 7): < 1.65 | log reduction at 5 % ([2]; 336 h, 5% (V/V), day 14): < 1.65 | log reduction at 15 % ([2]; 336 h, 15% (V/V), day 14): < 1.65 | log reduction at 50 % ([2]; 336 h, 50% (V/V), day 14): < 1.65 | log reduction at 5 % ([2]; 672 h, 5% (V/V), day 28): < 1.65 | log reduction at 15 % ([2]; 672 h, 15% (V/V), day 28): < 1.65 | log reduction at 50 % ([2]; 672 h, 50% (V/V), day 28): < 1.65 | Preservation Criteria A for fungi [2, 4]: does not conform to Preservation Criteria A for fungi | Nx ([2]; 5% (V/V), day 0): >3.30E+03 | Nx ([2]; 5% (V/V), day 7): >3.30E+03 | Nx ([2]; 5% (V/V), day 14): >3.30E+03 | Nx ([2]; 5% (V/V), day 28): >3.30E+03 | Nx ([2]; 15% (V/V), day 0): >3.30E+03 | Nx ([2]; 15% (V/V), day 7): >3.30E+03 | Nx ([2]; 15% (V/V), day 14): >3.30E+03 | Nx ([2]; 15% (V/V), day 28): >3.30E+03 | Nx ([2]; 50% (V/V), day 0): >3.30E+03 | Nx ([2]; 50% (V/V), day 7): >3.30E+03 | Nx ([2]; 50% (V/V), day 14): >3.30E+03 | Nx ([2]; 50% (V/V), day 28): >3.30E+03 | level at which it is a preservative, fungi ([2]; not tested, shows a fail at 50.0%): > 60.0%

[Ag] [Silver, silver]
effect on wound healing [3]: inhibit healing
